Measurements from US11883387B2, “PqsR inverse agonists” (HELMHOLTZ-ZENTRUM FÜR INFEKTIONSFORSCHUNG GMBH, priority 2018, dated 2024).

Assays:
[1] = Kinetic Turbidimetric Aqueous Solubility at room temperature for 5 min; format: physicochemical; conditions: PBS buffer, kinetic from dmso stock, 2% DMSO
Procedure: Kinetic Turbidimetric Aqueous Solubility at room temperature for 5 min. Test compound was diluted in PBS buffer to give a range of concentrations (typically 0.4, 2, 4, 20, 40, 100, and 200 μM, final DMSO concentration 2%) and incubated at room temperature for 5 min. Absorbance was measured at a wavelength of 620 nm and the solubility was estimated from the concentration of test compound that produces an increase in absorbance above the vehicle control (i.e., […]). Data was analyzed by fitting a four parameter sigmoidal function to the measured and normalized absorbances and AUC calculation providing access to Log S (decadic logarithm of the solubility).

PqsR = PqsR (Pseudomonas aeruginosa, UniProt Q9I4X0); assay: E. coli based β-galactosidase reporter gene assay (PqsR inverse agonistic activity); format: cell-based; design: expressed in transfected cells; host or cells: Escherichia coli DH5α
Chain of PqsR (Q9I4X0 whole entry): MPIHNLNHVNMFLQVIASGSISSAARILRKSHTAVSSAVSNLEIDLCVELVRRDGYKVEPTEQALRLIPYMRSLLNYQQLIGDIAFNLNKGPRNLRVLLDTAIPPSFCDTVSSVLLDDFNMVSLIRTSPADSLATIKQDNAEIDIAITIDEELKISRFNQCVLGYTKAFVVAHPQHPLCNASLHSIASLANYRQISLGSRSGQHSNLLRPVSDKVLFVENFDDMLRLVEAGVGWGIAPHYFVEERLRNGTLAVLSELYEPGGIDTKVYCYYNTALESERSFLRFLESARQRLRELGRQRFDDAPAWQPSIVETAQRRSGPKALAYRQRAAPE
Procedure: Inhibition of pqsR-dependent gene expression of test compounds was determined in an E. coli based β-galactosidase reporter gene assay.[19] Escherichia coli DH5α was transfected with pEAL08-2 plasmid encoding pqsR under control of promoter tac and β-galactosidase reporter gene lacZ under control of promoter pqsA. Antagonistic effects of compounds were evaluated in the presence of/in competition to 50 nM PQS. A positive control was used to ensure the reliability of individual assays. First, PQS was diluted in methanol and added to the wells of a glass coated 96-deep-well plate, and the solvent was evaporated. Then, compounds were added in 5 μL DMSO to final concentrations of 0.001-10 μM. Overnight cultures of E. coli DH5a×pEAL08-2 were diluted 1:100 in LB medium with ampicillin (50 μg/ml) and incubated at 37° C. with shaking until it reached an OD600 of 0.2. Finally, 995 μL of culture was added to each well and the p-galactosidase activity was determined by ortho-nitrophenyl-p-galactoside conversion in permeabilized cells after a 2.5 h incubation period (37° C., 180 rpm). OD600, OD420, and OD550 were measured using POLARstar Omega (BMG Labtech, Ortenberg, Germany), and the activity was expressed as ratio of the slope of β-galactosidase activity between basal control (no PQS) and solvent control. IC50 values of antagonists were determined by variation of the concentration of the test compounds.

[2] = system: P. aeruginosa pyocyanin production; assay: Pyocyanin assay; format: cell-based, P. aeruginosa PA14; conditions: Pseudomonas aeruginosa, PA14, 16 h, read-out: IC50-value towards pyocyanin production, PA14 in PPGAS medium, 16 h
Procedure: Inhibition of P. aeruginosa pyocyanin production by compounds was determined photometrically as described before.[20] In short, an overnight culture of PA14 in PPGAS medium was washed, diluted in medium to a start OD600 of 0.02, and incubated for 16 h (37° C., 200 rpm, relative humidity 75%) in the presence of test compounds. Then, cultures were extracted with chloroform and re-extracted with 0.2 M HCl. Protonated red colored pyocyanin was determined by measuring OD520 and normalizing to OD600.

Row | SMILES | solubility at 5 min [1] [µM] | IC50 (PqsR) [nM] | IC50 [2] [nM]
1 | FC(F)(F)c1cc(NCc2cn(-c3ccc(Oc4cccnc4)c(Cl)c3)nn2)ccn1 [Compound 031, N-((1-(3-Chloro-4-(pyridin-3-yloxy)phenyl)-1H-1,2,3-triazol-4-yl)methyl)-2-(trifluoromethyl)pyridin-4-amine] | > 25 | – | –
2 | FC(F)(F)c1cc(NCc2cn(-c3ccc(Oc4cccnc4)cc3)nn2)ccn1 [Compound 033, N-((1-(4-(Pyridin-3-yloxy)phenyl)-1H-1,2,3-triazol-4-yl)methyl)-2-(trifluoromethyl)pyridin-4-amine] | > 25 | ≤ 50 | –
3 | CC(C)Oc1ccc(-n2cc(CNc3ccnc(C(F)(F)F)c3)nn2)cc1 [Compound 035, N-((1-(4-Isopropoxyphenyl)-1H-1,2,3-triazol-4-yl)methyl)-2-(trifluoromethyl)pyridin-4-amine] | ≥ 100 | ≤ 50 | –
4 | CSc1ccc(-n2cc(CNc3ccnc(C(F)(F)F)c3)nn2)cc1Cl [Compound 038, N-((1-(3-Chloro-4-(methylthio)phenyl)-1H-1,2,3-triazol-4-yl)methyl)-2-(trifluoromethyl)pyridin-4-amine] | > 25 | ≤ 50 | –
5 | FC(F)(F)c1cc(NCc2cn(-c3ccc(-n4ccc5ccncc54)cc3)nn2)ccn1 [Compound 043, N-((1-(4-(1H-pyrrolo[2,3-c]pyridin-1-yl)phenyl)-1H-1,2,3-triazol-4-yl)methyl)-2-(trifluoromethyl)pyridin-4-amine] | > 25 | ≤ 50 | –
6 | FC(F)(F)c1cc(NCc2cn(-c3ccc(-n4ccc5cccnc54)cc3)nn2)ccn1 [Compound 044, N-((1-(4-(1H-pyrrolo[2,3-b]pyridin-1-yl)phenyl)-1H-1,2,3-triazol-4-yl)methyl)-2-(trifluoromethyl)pyridin-4-amine] | > 10 | ≤ 50 | –
7 | FC(F)(F)c1cc(SCc2cn(-c3cccc(Cl)c3)nn2)ccn1 [Compound 056, 4-(((1-(3-Chlorophenyl)-1H-1,2,3-triazol-4-yl)methyl)thio)-2-(trifluoromethyl)pyridine] | > 25 | 251 to 1000 | –
8 | COc1ccc(-c2ncc(CNc3cc(N)nc(C(F)(F)F)n3)s2)cc1Cl [Compound 070, N^4-((2-(3-chloro-4-methoxyphenyl)thiazol-5-yl)methyl)-2-(trifluoromethyl)-pyrimidine-4,6-diamine] | > 25 | – | –
9 | FC(F)(F)c1cc(NCc2nc(-c3ccc(Oc4ccccc4)cc3)cs2)ccn1 [Compound 079, N-((4-(4-Phenoxyphenyl)thiazol-2-yl)methyl)-2-(trifluoromethyl)pyridin-4-amine] | > 25 | 251 to 1000 | –
10 | COc1ncc(-c2nc(CNc3ccnc(C(F)(F)F)c3)cs2)cc1Cl [Compound 084, N-((2-(5-Chloro-6-methoxypyridin-3-yl)thiazol-4-yl)methyl)-2-(trifluoromethyl)pyridin-4-amine] | > 25 | 51 to 250 | –
11 | CC(C)Oc1ccc(-c2ncc(CNc3cc(Cl)nc(C(F)(F)F)c3)s2)cc1Cl [Compound 094, 2-Chloro-N-((2-(3-chloro-4-isopropoxyphenyl)thiazol-5-yl)methyl)-6-(trifluoromethyl)pyridin-4-amine] | – | ≤ 50 | ≤ 250
12 | COc1ncc(-c2ccc(CNc3ccnc(C(F)(F)F)c3)nc2)cc1Cl [Compound 101, N-((5′-Chloro-6′-methoxy-[3,3′-bipyridin]-6-yl)methyl)-2-(trifluoromethyl)pyridin-4-amine] | > 25 | 51 to 250 | –
13 | FC(F)(F)c1cc(SCc2ccc(-c3ccc(Cl)cc3)cn2)ccn1 [Compound 111, 4-(((5-(4-Chlorophenyl)pyridin-2-yl)methyl)thio)-2-(trifluoromethyl)pyridine] | > 10 | – | –
14 | Nc1cc(SCc2nc3cc(Cl)c(Cl)cc3[nH]2)nc(C(F)(F)F)n1 [Compound 117, 6-(((5,6-Dichloro-1H-benzo[d]imidazol-2-yl)methyl)thio)-2-(trifluoromethyl)pyrimidin-4-amine] | > 50 | 51 to 250 | –
15 | FC(F)(F)c1cc(OCc2nc3cc(Cl)c(Cl)cc3[nH]2)ccn1 [Compound 120, 5,6-Dichloro-2-(((2-(trifluoromethyl)pyridin-4-yl)oxy)methyl)-1H-benzo[d]imidazole] | > 50 | 251 to 1000 | –
16 | FC(F)(F)c1cc(NCc2cn(-c3ccc(Oc4cccnc4)cc3)nn2)cc(Cl)n1 [Compound 141, 2-chloro-N-((1-(4-(pyridin-3-yloxy)phenyl)-1H-1,2,3-triazol-4-yl)methyl)-6-(trifluoromethyl)pyridin-4-amine] | – | ≤ 50 | ≤ 250
17 | Fc1ncccc1Oc1ccc(-n2cc(CNc3cc(Cl)nc(C(F)(F)F)c3)nn2)cc1 [Compound 142, 2-chloro-N-((1-(4-((2-fluoropyridin-3-yl)oxy)phenyl)-1H-1,2,3-triazol-4-yl)methyl)-6-(trifluoromethyl)pyridin-4-amine] | – | ≤ 50 | ≤ 250
18 | Fc1ccccc1Oc1ccc(-n2cc(CNc3cc(Cl)nc(C(F)(F)F)c3)nn2)cc1 [Compound 143, 2-chloro-N-((1-(4-(2-fluorophenoxy)phenyl)-1H-1,2,3-triazol-4-yl)methyl)-6-(trifluoromethyl)pyridin-4-amine] | – | ≤ 50 | ≤ 250
19 | FC(F)(F)c1cc(NCc2cn(-c3ccc(-n4ncc5ccncc54)cc3)nn2)ccn1 [Compound 148, N-((1-(4-(1H-pyrazolo[3,4-c]pyridin-1-yl)phenyl)-1H-1,2,3-triazol-4-yl)methyl)-2-(trifluoromethyl)pyridin-4-amine] | – | ≤ 50 | 251 to 1000
20 | FC(F)(F)c1cc(NCc2cn(-c3ccc(OC4COC4)c(Cl)c3)nn2)ccn1 [Compound 152, N-((1-(3-chloro-4-(oxetan-3-yloxy)phenyl)-1H-1,2,3-triazol-4-yl)methyl)-2-(trifluoromethyl)pyridin-4-amine] | – | ≤ 50 | 1000 to 5000
21 | CC(C)Oc1ccc(-n2cc(CNc3cc(C#N)nc(C(F)(F)F)c3)nn2)cc1Cl [Compound 156, 4-(((1-(3-chloro-4-isopropoxyphenyl)-1H-1,2,3-triazol-4-yl)methyl)amino)-6-(trifluoromethyl)picolinonitrile] | – | ≤ 50 | 251 to 1000
22 | CC(C)Oc1ccc(-n2cc(CNc3cc(Cl)nc(Cl)c3)nn2)cc1Cl [Compound 158, 2,6-dichloro-N-((1-(3-chloro-4-isopropoxyphenyl)-1H-1,2,3-triazol-4-yl)methyl)pyridin-4-amine] | – | ≤ 50 | ≤ 250
23 | CC(C)Oc1ccc(-n2cc(CNc3cc(C#N)nc(C#N)c3)nn2)cc1Cl [Compound 159, 4-(((1-(3-chloro-4-isopropoxyphenyl)-1H-1,2,3-triazol-4-yl)methyl)amino)pyridine-2,6-dicarbonitrile] | – | ≤ 50 | ≤ 250
24 | CC(C)Oc1ccc(-c2ncc(CNc3cc(Cl)nc(Cl)c3)s2)cc1 [Compound 162, 2,6-Dichloro-N-((2-(4-isopropoxyphenyl)thiazol-5-yl)methyl)pyridin-4-amine] | – | ≤ 50 | ≤ 250
25 | Fc1ccc(Oc2ccc3[nH]c(CSc4ccnc(C(F)(F)F)c4)nc3c2)cc1 [Compound 173, 5-(4-fluorophenoxy)-2-(((2-(trifluoromethyl)pyridin-4-yl)thio)methyl)-1H-benzo[d]imidazole] | > 25 | – | 251 to 1000
26 | Nc1cc(SCc2nc3cc(Oc4cccnc4)ccc3[nH]2)nc(C(F)(F)F)n1 [Compound 174, 6-(((5-(pyridin-3-yloxy)-1H-benzo[d]imidazol-2-yl)methyl)thio)-2-(trifluoromethyl)pyrimidin-4-amine] | ≥ 100 | – | 251 to 1000
27 | Clc1cc(SCc2nc3cc(Oc4ccccc4)ccc3[nH]2)ccn1 [Compound 178, 2-(((2-chloropyridin-4-yl)thio)methyl)-5-phenoxy-1H-benzo[d]imidazole] | – | 51 to 250 | 251 to 1000
28 | FC(F)(F)c1cc(SCc2nc3cc(Oc4ccccc4)ccc3[nH]2)cc(Cl)n1 [Compound 184, 2-(((2-chloro-6-(trifluoromethyl)pyridin-4-yl)thio)methyl)-5-phenoxy-1H-benzo[d]imidazole] | – | ≤ 50 | ≤ 250
